# Biological target: T1, PLCγ2-P522R (Homo sapiens, UniProt P16885, P522R)
# T1 construct: gene PLCG2
# T1 sequence (P16885 1-1195 P522R): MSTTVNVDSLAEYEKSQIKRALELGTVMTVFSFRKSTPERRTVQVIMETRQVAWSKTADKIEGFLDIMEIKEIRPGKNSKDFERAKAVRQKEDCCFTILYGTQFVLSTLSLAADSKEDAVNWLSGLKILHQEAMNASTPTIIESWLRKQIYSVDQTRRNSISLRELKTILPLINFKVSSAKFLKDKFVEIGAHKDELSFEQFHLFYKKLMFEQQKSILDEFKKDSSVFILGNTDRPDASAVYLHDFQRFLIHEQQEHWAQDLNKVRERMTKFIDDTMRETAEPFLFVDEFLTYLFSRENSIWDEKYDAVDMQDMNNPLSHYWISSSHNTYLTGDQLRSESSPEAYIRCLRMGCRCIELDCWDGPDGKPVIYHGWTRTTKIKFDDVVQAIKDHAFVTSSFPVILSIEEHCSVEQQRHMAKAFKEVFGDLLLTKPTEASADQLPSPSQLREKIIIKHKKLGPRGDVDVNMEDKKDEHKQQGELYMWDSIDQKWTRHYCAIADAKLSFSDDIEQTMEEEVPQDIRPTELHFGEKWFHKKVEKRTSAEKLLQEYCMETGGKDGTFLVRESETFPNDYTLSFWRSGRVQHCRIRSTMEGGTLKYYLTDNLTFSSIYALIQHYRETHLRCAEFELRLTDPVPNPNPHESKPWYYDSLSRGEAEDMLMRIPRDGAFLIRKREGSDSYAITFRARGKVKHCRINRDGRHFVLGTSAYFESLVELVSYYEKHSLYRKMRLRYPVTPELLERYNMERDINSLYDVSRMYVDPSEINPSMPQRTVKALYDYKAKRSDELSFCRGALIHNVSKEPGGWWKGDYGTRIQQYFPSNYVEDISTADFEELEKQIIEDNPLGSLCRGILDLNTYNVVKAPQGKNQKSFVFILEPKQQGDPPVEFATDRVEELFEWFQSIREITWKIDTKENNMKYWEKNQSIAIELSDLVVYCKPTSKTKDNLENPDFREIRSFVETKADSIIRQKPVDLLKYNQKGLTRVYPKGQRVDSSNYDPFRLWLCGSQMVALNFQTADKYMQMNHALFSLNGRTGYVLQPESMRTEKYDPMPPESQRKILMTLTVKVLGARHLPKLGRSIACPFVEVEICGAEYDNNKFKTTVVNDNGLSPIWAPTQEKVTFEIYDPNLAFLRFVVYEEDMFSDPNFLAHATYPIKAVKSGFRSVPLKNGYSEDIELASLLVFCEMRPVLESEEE
# Assay: fluorogenic micelle enzyme assay
# Type: biochemical
compound,measurement,value
CCCCCCCCCCCCCCCCOc1cc(COC(=O)Nc2ccc3c(C(F)(F)F)cc(=O)oc3c2)ccc1OP(=O)(O)O[C@@H]1[C@H](O)[C@H](O)[C@@H](OP(=O)(O)O)[C@H](OP(=O)(O)O)[C@H]1O [C16CF3-coumarin],fluorogenic micelle enzyme assay,both PLCγ1-D1665H and PLCγ2-P522R were able to process the C16CF3-coumarin substrate faster than the corresponding wild-type enzymes

# Source: publication PMC10980208, “A novel micellular fluorogenic substrate for quantitating the activity of 1-phosphatidylinositol 4,5-bisphosphate phosphodiesterase gamma (PLCγ) enzymes” (PLOS ONE, 2024)
